Test results as given in patent publication US8258215B2, “Mixed alkyl-alkylaryl-phenyl phosphite polymer additive” (Dover Chemical Corporation, priority 2010, dated 2012).
Read-outs that look alike come from different tables or passages of the source.

Key:
[1] = LLDPE; 900 ppm phosphite + 500 ppm Dovernox 76
Description: (§1) The polyolefin powder (polyethylene, polypropylene or high density polyethylene) is dry blended with the stabilizer formulation using a Waring blender. […] The masterbatch is then added to a preheated co-rotating twin screw extruder where the plastic is homogeneously mixed. Extrusion is typically performed at 260° C. for polyethylene (LLDPE) and polypropylene (PP) and at 250° C. for high density polyethylene (HDPE). The extruded plastic is cooled into a cold water bath, completely dried, and pelletized. The collected polymer pellets are the result of the first pass extrusion and are the starting material for all subsequent test protocols. The isolated pellets are added to the extruder repeatedly to generate the third and fifth pass material.
(§2) Color analysis was performed on compression molded films or plaques with a Hunter Lab Ulstrascan XE machine. Observations were made with a D65 illuminant and 10° observer. Yellowness Index measurements were made in accord with ASTM D1925-70.

[2] = LLDPE; for High load Melt Flow Stability, 1st pass / High load Melt Flow Stability, 3rd pass / High load Melt Flow Stability, 5th pass: 190° C. (21.6 Kg), 900 ppm phosphite + 500 ppm Dovernox 76; for maintaining melt flow stability, in words: compared with TNPP (Table III)
Description: as §1
(§3) The melt flow rate was performed using the ASTM 1238-90b test method measured at 21.6 Kg/190° C. for LLDPE and HDPE compositions and at 2.16 Kg/230° C. for the PP compositions. The melt flow rate was complete on a Tinius Olsen extrusion plastometer.

[3] = PP; phosphite 900 ppm
Description: as §1, §2

[4] = HDPE; 230° C.; phosphite 900 ppm
Description: as §1, §2

[5] = HDPE; 190° C. (21.6 Kg); phosphite 900 ppm
Description: as §1, §3

[6] = PP; 230° C. (21.6 Kg); phosphite 900 ppm
Description: as §1, §3

[7] = test system: estrogenic activity; experiment: Estrogenic activity by in-vivo testing

Compound: Mixed C16-18 alkyl, p-cumylphenyl phosphite [Example 6]
- YI (Yellowness Index) Color Stability, 1st pass [1]: −3.8
- YI (Yellowness Index) Color Stability, 3rd pass [1]: −1.1
- YI (Yellowness Index) Color Stability, 5th pass [1]: 1.5
- High load Melt Flow Stability, 1st pass [2]: 18.7
- High load Melt Flow Stability, 3rd pass [2]: 15.7
- High load Melt Flow Stability, 5th pass [2]: 13.6

Compound: Mixed C12-14 alkyl, p-cumylphenyl phosphite [Example 2]
- YI (Yellowness Index) Color Stability, 1st pass [1]: −5.4
- YI (Yellowness Index) Color Stability, 3rd pass [1]: −3.5
- YI (Yellowness Index) Color Stability, 5th pass [1]: −1.5
- Color Stability (YI), 1st pass [3]: 7.2
- Color Stability (YI), 3rd pass [3]: 10.4
- High load Melt Flow Stability, 1st pass [2]: 17.7
- High load Melt Flow Stability, 3rd pass [2]: 15.7
- High load Melt Flow Stability, 5th pass [2]: 14.0
- maintaining melt flow stability, in words [2]: performed exceptionally well
- Color Stability (YI), 1st pass [4]: 1.2
- Color Stability (YI), 3rd pass [4]: 5.9
- Color Stability (YI), 5th pass [4]: 10.2
- High load Melt Flow Stability, 1st pass [5]: 22.7
- High load Melt Flow Stability, 3rd pass [5]: 22.2
- High load Melt Flow Stability, 5th pass [5]: 17.2
- High load Melt Flow Stability, 1st pass [6]: 24.2
- High load Melt Flow Stability, 3rd pass [6]: 33.7
- High load Melt Flow Stability, 5th pass [6]: 37.9

Compound: Mixed C18 alkenyl, p-cumylphenyl phosphite [Example 4]
- YI (Yellowness Index) Color Stability, 1st pass [1]: −5.8
- YI (Yellowness Index) Color Stability, 3rd pass [1]: −3.8
- YI (Yellowness Index) Color Stability, 5th pass [1]: −1.4
- High load Melt Flow Stability, 1st pass [2]: 18.1
- High load Melt Flow Stability, 3rd pass [2]: 14.8
- High load Melt Flow Stability, 5th pass [2]: 13.4

Compound: CC(C)(c1ccccc1)c1ccc(O)cc1 [para-cumylphenol]
- estrogenic activity compared with nonylphenol [7]: does not show comparable estrogenic activity to nonylphenol

Compound: Mixed C12-14 Alkyl, 2,4-dicumylphenyl Phosphite [Example 10]
- YI (Yellowness Index) Color Stability, 1st pass [1]: −6.1
- YI (Yellowness Index) Color Stability, 3rd pass [1]: −3.8
- YI (Yellowness Index) Color Stability, 5th pass [1]: −2.4
- High load Melt Flow Stability, 1st pass [2]: 18.3
- High load Melt Flow Stability, 3rd pass [2]: 15.5
- High load Melt Flow Stability, 5th pass [2]: 13.5

Compound: tris(nonylphenyl)phosphite [TNPP, reference compound]
- YI (Yellowness Index) Color Stability, 1st pass [1]: −3.7
- YI (Yellowness Index) Color Stability, 3rd pass [1]: −1.7
- YI (Yellowness Index) Color Stability, 5th pass [1]: 0.4
- Color Stability (YI), 1st pass [3]: 14.8
- Color Stability (YI), 3rd pass [3]: 15.1
- High load Melt Flow Stability, 1st pass [2]: 18.1
- High load Melt Flow Stability, 3rd pass [2]: 16.1
- High load Melt Flow Stability, 5th pass [2]: 14.4
- Color Stability (YI), 1st pass [4]: −0.4
- Color Stability (YI), 3rd pass [4]: 4.9
- Color Stability (YI), 5th pass [4]: 9.3
- High load Melt Flow Stability, 1st pass [5]: 22.7
- High load Melt Flow Stability, 3rd pass [5]: 22.5
- High load Melt Flow Stability, 5th pass [5]: 18.5
- High load Melt Flow Stability, 1st pass [6]: 21.4
- High load Melt Flow Stability, 3rd pass [6]: 30.0
- High load Melt Flow Stability, 5th pass [6]: 37.0

Compound: Mixed C12-18 alkyl, p-cumylphenyl phosphite [Example 7]
- YI (Yellowness Index) Color Stability, 1st pass [1]: −5.5
- YI (Yellowness Index) Color Stability, 3rd pass [1]: −3.6
- YI (Yellowness Index) Color Stability, 5th pass [1]: −1.5
- Color Stability (YI), 1st pass [3]: 7.0
- Color Stability (YI), 3rd pass [3]: 10.0
- High load Melt Flow Stability, 1st pass [2]: 18.5
- High load Melt Flow Stability, 3rd pass [2]: 16.1
- High load Melt Flow Stability, 5th pass [2]: 14.6
- maintaining melt flow stability, in words [2]: performed exceptionally well
- Color Stability (YI), 1st pass [4]: −0.6
- Color Stability (YI), 3rd pass [4]: 1.4
- Color Stability (YI), 5th pass [4]: 6.4
- High load Melt Flow Stability, 1st pass [5]: 23.6
- High load Melt Flow Stability, 3rd pass [5]: 22.2
- High load Melt Flow Stability, 5th pass [5]: 17.1
- High load Melt Flow Stability, 1st pass [6]: 24.2
- High load Melt Flow Stability, 3rd pass [6]: 34.2
- High load Melt Flow Stability, 5th pass [6]: 44.4

Compound: Mixed C10 alkyl, p-cumylphenyl phosphite [Example 3]
- YI (Yellowness Index) Color Stability, 1st pass [1]: −4.2
- YI (Yellowness Index) Color Stability, 3rd pass [1]: −2.9
- YI (Yellowness Index) Color Stability, 5th pass [1]: −1.1
- High load Melt Flow Stability, 1st pass [2]: 17.1
- High load Melt Flow Stability, 3rd pass [2]: 13.4
- High load Melt Flow Stability, 5th pass [2]: 12.2
